Assay results from US7833979B2, “Toxin peptide therapeutic agents” (Amgen Inc., priority 2005, dated 2010).

Assays:
[1] = test system: upregulation of CD40L and IL-2R on CD4+ T cells in human whole blood; assay: Ex vivo human whole blood assay, thapsigargin-induced cell surface CD40L and IL-2R on T cells (FACS); assay type: cell-based; conditions: 24 hours
Kv1.3 [2] = target: T1, Kv1.3 (Homo sapiens, UniProt P22001); assay: Whole cell patch clamp electrophysiology on HEK293 cells stably expressing human Kv1.3; assay type: cell-based
T1 sequence (P22001 whole entry): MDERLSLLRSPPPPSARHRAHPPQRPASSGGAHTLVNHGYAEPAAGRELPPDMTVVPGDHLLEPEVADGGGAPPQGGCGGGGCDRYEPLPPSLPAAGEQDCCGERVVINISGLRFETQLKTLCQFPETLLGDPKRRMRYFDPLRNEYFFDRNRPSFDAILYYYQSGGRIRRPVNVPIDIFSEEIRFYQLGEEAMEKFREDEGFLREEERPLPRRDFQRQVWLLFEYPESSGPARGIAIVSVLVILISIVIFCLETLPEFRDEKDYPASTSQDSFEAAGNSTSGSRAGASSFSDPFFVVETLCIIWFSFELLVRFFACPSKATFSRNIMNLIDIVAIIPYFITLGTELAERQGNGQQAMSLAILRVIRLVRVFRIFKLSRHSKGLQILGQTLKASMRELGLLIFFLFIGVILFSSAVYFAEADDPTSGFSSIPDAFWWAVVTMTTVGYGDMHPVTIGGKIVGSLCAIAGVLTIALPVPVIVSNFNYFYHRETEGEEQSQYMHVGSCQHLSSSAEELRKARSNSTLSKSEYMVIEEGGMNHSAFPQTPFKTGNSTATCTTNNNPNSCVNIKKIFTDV

[3] = test system: T cell proliferation in human PBMCs; assay: Inhibition of T cell proliferation (3H-thymidine incorporation) following anti-CD3 and anti-CD28 stimulation of PBMCs; assay type: cell-based; conditions: pre-incubation with anti-human CD32 blocking antibody
From the text: Inhibition of T cell proliferation following anti-CD3 and anti-CD28 antibody stimulation of PBMCs. PBMC's were previously isolated from normal human donor Leukophoresis packs, purified by density gradient centrifugation (Ficoll Hypaque), cryopreserved in CPZ Cryopreservation Medium Complete (INCELL, MCPZF-100 plus 10% DMSO final). PBMC's were thawed (95% viability), washed, and seeded at 2×10^5 cells per well in culture medium (RPMI medium 1640; GIBCO) supplemented with 10% fetal calf serum, 100 U/ml penicillin, […] streptomycin, 2 mM L-glutamine, 100 μM non-essential amino acids, and 20 μM 2-ME) in 96-well flat-bottom tissue culture plates. Cells were pre-incubated with either anti-human CD32 (FcyRII) blocking antibody (per manufacturers instructions EASY SEP Human Biotin Selection Kit #18553, StemCell Technologies Vancouver, BC) or Fc-L10-ShK (100 nM-0.001 nM final) for 45 min. Fc-L10-ShK (100 nM-0.001 nM final) was then added to the cells containing anti-human CD32 blocking antibody while medium was added to the cells containing Fc-L10-ShK. Both sets were incubated for an additional 45 min before stimulating for 48 hr with aCD3/aCD28 (0.2 ng/ml and 100 ng/ml, respectively). Final assay volume was 200 ul. […] Cells were then harvested onto glass fiber filters and radioactivity was measured in a B-scintillation counter.

[4] = target: fixed HEK 293 cells overexpressing Kv1.3 (Homo sapiens, UniProt P22001); conditions: whole cell immunoassay
Chain of fixed HEK 293 cells overexpressing Kv1.3 (P22001 whole entry): as above
Method: Parent HEK 293 cells or HEK Kv1.3 cells were plated at 3×10e4 cells/well in poly-D-Lysine coated ninety-six well plates (#35-4461; Becton-Dickinson, Bedford, Mass.). Cells were fixed with formalin (Sigma HT50-1-1 Formalin solution, diluted 1:1 with PBS/0.5% BSA before use) by removing cell growth medium, adding 0.2 ml/well formalin solution and incubating at room temperature for 25 minutes and then washing one time with 100 ul/well of PBS/0.5% BSA. Wells were blocked by addition of 0.3 ml/well of BSA blocker (50-61-00; KPL 10% BSA Diluent/Blocking Solution, diluted 1:1 with PBS; KPL, Gaithersburg, Md.) followed by incubation at room temperature, with shaking, for 3 hr. Plates were washed 2 times with 1×KP Wash Buffer (50-63-00; KPL). Samples were diluted in Dilution Buffer (PBS/0.5% Tween-20) or Dilution Buffer with 1% Male Lewis Rat Serum (RATSRM-M; Bioreclamation Inc., Hicksville, N.Y.) and 0.1 ml/well was added to blocked plates, incubating for 1 hr at room temperature with shaking. […] Absorbance was read at 450 nm on a Molecular Devices SpectroMax 340 (Sunnyvale, Calif.).
Whole cell immunoassay was performed as above with the following modifications. […] Absorbances were read at 405 nm after stopping reactions by addition of 0.1 ml/well of 1% SDS.

[5] = test system: IL-2 and IFNg production from anti-CD3 and anti-CD28 stimulated human PBMCs; assay: Inhibition of T cell cytokine production following anti-CD3 and anti-CD28 antibody stimulation of PBMCs; assay type: cell-based; conditions: 48 hours
Method: Inhibition of T cell cytokine production following Anti-CD3 and anti-CD28 antibody stimulation of PBMCs. PBMCs were previously isolated from normal human donor Leukopheresis packs, purified by density gradient centrifugation (Ficoll Hypaque), and cryopreserved using INCELL Freezing Medium. PBMCs were thawed (95% viability), washed, and seeded (in RPMI complete medium containing serum replacement, PSG) at 2×10^5 cells per well into 96-well flat bottom plates. Cells were pre-incubated with serially diluted (100 nM-0.003 nM final) ShK[1-35], Fc-L10-ShK[1-35], or Fc control for 1 hour before the addition of aCD3 and aCD28 (2.5 ng/mL and 100 ng/mL respectively) in a final assay volume of […]. Supernatants were collected after 48 hours, and analyzed using the Meso Scale Discovery (MSD) SECTOR™ Imager 6000 (Meso Scale Discovery, Gaithersbury, Md.) to measure the IL-2 and IFNg protein levels by utilizing electrochemiluminescence (ECL). […] of supernatant was added to the MSD multi-spot 96-well plates (each well containing IL-2, TNFa, and IFNg capture antibodies). The plates were sealed and incubated at room temperature on a plate shaker for 1 hour. Then […] of Ruthenium-labeled detection antibodies (1 ug/ml final of IL-2, TNFα, and IFNγ in Antibody Dilution Buffer) and […] of 2×MSD Read Buffer were added. The plates were sealed, covered with tin foil, and incubated at room temperature on a plate shaker for 1 hour. The plates were then read on the SECTOR™ Imager 6000. […] (POC=Percent Of Control of response in the absence of inhibitor).

[6] = target: HEK 293 cells overexpressing human Kv1.3 (Homo sapiens, UniProt P22001); assay: Immunohistochemistry analysis of binding to HEK 293 cells overexpressing human Kv1.3; conditions: 5 ug/ml, fixed cells, confocal microscopy
Chain of HEK 293 cells overexpressing human Kv1.3 (P22001 whole entry): as above
Method: HEK 293 cells overexpressing human Kv1.3 (HEK Kv1.3) were obtained from BioFocus plc (Cambridge, UK) and maintained per manufacturer's recommendation. The parental HEK 293 cell line was used as a control. Cells were plated on Poly-D-Lysine 24 well plates (#35-4414; Becton-Dickinson, Bedford, Mass.) and allowed to grow to approximately 70% confluence. HEK KV1.3 were plated at 0.5×10e5 cells/well in 1 ml/well of medium. HEK 293 cells were plated at a density of 1.5×10e5 cells/well in 1 ml/well of medium. […] Cells were stained by incubating with 0.2 ml/well of 5 ug/ml Fc-L10-ShK[1-35] in PBS/BSA for 30′ at room temperature. Fc-L10-ShK[1-35] was aspirated and then the cells were washed one time with PBS/0.5% BSA. Detection antibody (Goat F(ab)2 anti-human IgG-phycoerythrin; Southern Biotech Associates, Birmingham, Ala.) was added to the wells at 5 ug/ml in PBS/0.5% BSA and incubated for 30′ at room temperature. Wash cells once with PBS/0.5% BSA and examine using confocal microscopy (LSM 510 Meta Confocal Microscope; Carl Zeiss AG, Germany). […] In disease settings where activated T effector memory cells have been reported to overproduce Kv1.3, this reagent can find utility in both targeting these cells and in their detection.

[7] = test system: IL-2 and IFNg production from PMA and anti-CD3 stimulated human PBMCs; assay: Inhibition of T cell cytokine production following PMA and anti-CD3 antibody stimulation of PBMCs; assay type: cell-based; conditions: 48 hr
From the text: Inhibition of T cell cytokine production following PMA and anti-CD3 antibody stimulation of PBMCs. PBMC's were previously isolated from normal human donor Leukophoresis packs, purified by density gradient centrifugation (Ficoll Hypaque), cryopreserved in CPZ Cryopreservation Medium Complete (INCELL, MCPZF-100 plus 10% DMSO final). PBMC's were thawed (95% viability), washed, and seeded at 2×10^5 cells per well in culture medium (RPMI medium 1640; GIBCO) supplemented with 10% fetal calf serum, 100 U/ml penicillin, […] streptomycin 2 mM L-glutamine, 100 uM non-essential amino acids, and 20 uM 2-ME) in 96-well flat-bottom tissue culture plates. Cells were pre-incubated with serially diluted (100 nM-0.001 nM final) ShK[1-35], Fc-L10-ShK[1-35] or fc control for 90 min before stimulating for 48 hr with PMA/anti-CD3 (1 ng/ml and 50 ng/ml, respectively) in a final assay volume of 200 ul. Analysis of the assay samples was performed using the Meso Scale Discovery (MSD) SECTOR™ Imager 6000 (Meso Scale Discovery, Gaithersbury, Md.) to measure the IL-2 and IFNg protein levels by utilizing electrochemiluminescence (ECL). […] For each well, 20 ul of Ruthenium-labeled detection antibodies (1 ug/ml final in Antibody Dilution Buffer; […], TNF, IFNγ) and 130 ul of 2×MSD Read Buffer added, final volume 150 ul. […] The plates were then read on the SECTOR™ Imager 6000. […]

Kv1.3 [8] = target: T1, Kv1.3; assay: IonWorks Quattro automated (population patch clamp) electrophysiology on CHO-Kv1.3 cells; assay type: cell-based; design: expressed in transfected cells; conditions: IonWorks planar patch clamp, average IC50, read-out: Kv1.3 IC50 by IWQ
Method: Assay Plate preparation for electrophysiology. […] Before experiments, each sample was thawed at room temperature and an aliquot (70 to 80 μl) was transferred to a well in a 96-well polypropylene plate. In order to prepare the Assay Plate, several dilutions were made from the pharmacokinetic serum samples to give rise to Test Solutions. Dilutions of serum samples from the pharmacokinetic study were into 10% Phosphate Buffered Saline (PBS, with Ca^2+ and Mg^2+). […] Standard inhibition curves were also prepared in the Assay Plate.
Cell preparation for electrophysiology. CHO cells stably expressing the voltage-activated K^+ channel, Kv1.3 were plated in T-175 tissue culture flasks (at a density of 5×10^6) 2 days before experimentation and allowed to grow to around 95% confluence. […] The mean K^+ current amplitude was measured between 430 and 440 ms and the data were exported to a Microsoft Excel spreadsheet. The amplitude of the K^+ current in the presence of each concentration of the Test Solution or Standard was expressed as a percentage of the K^+ current in control conditions in the same well.
Standard inhibition curves were generated for each standard in various levels of rat serum and expressed as current percent of control (POC) versus log of nM concentration. […]

Row | Substance | Thapsigargin-induced upregulation of CD40L on T cells in human whole blood [1] | Thapsigargin-induced upregulation of the IL-2R on T cells in human whole blood [1] | IC50 (Kv1.3 [2]; HEK293 cells stably expressing human Kv1.3, mean±s.e.m., estimated, read-out: IC50, block of outward potassium current) [nM] | Blockade of human Kv1.3 current (in words) (Kv1.3 [2]; patch clamp electrophysiology) | Effect of pre-blocking with anti-CD32 (FcR) blocking antibody on inhibition of T cell proliferation [3] | Binding response on fixed HEK 293 cells overexpressing Kv1.3 [4] | Binding response on untransfected HEK 293 cells [4] | Inhibition of IFNg production [5] | Inhibition of IL-2 production [5] | Binding (staining) to Kv1.3 overexpressing HEK 293 cells [6] | Binding (staining) to untransfected HEK 293 cells [6] | Inhibition of IFNγ production [7] | Inhibition of IL-2 production [7] | IC50 (Kv1.3 [8]) [nM]
1 | Fc-L10-ShK[1-35]: Fc region of human IgG1 fused in-frame via L10 linker to Kv1.3 inhibitor peptide ShK[1-35]; SEQ ID NO: 78 | suppressed | suppressed | 0.015 ± 0.002 | potently blocked human Kv1.3 | little effect | dose-dependent increase in the peptibody binding | does not elicit a response from untransfected HEK 293 cells | nearly complete | nearly complete | binds to Kv1.3 overexpressing HEK 293 cells | little binding to untransfected cells | potently inhibits IL-2 and IFNg production | potently inhibits IL-2 and IFNg production | 
2 | E. coli-derived ShK[2-35]-L-Fc |  |  |  |  |  |  |  |  |  |  |  |  |  | 4.9
